“And” between values parts separate entries of the source, which are not always exact repeats. Equal entries are not always repeated. Structures can show the parent of a compound that is named as a salt. Where two headings read alike, the source gives them in different places.
Assays:
cdk4/cyclin D1 = target: T1, cdk4/cyclin D1 (Homo sapiens, UniProt P11802); test: Cyclin-dependent Kinase 4 Assay (cdk4/cyclin D1, GST-Rb substrate); format: biochemical; details: cdk4/cyclin D1 insect cell lysate, 10 μM ATP, 30 min at 37° C., several values = separate determinations, read-out: CDK4 Inhibition IC50
T1 construct: made in house; host or cells: Sf9 insect cells (Bac-to-Bac baculovirus, pFastBac)
Procedure: The IC50 values for cdk4 inhibition were by the following method:
The transformed bacteria were grown overnight to saturation, then diluted in YT broth and incubated at 37° C. for 2 h. The protein was induced by incubation with 0.1 mM isopropylthioglycoside for 3 h. Following sedimentation by centrifugation, the cells were lysed by sonication in STE buffer ([…] NaCl, 10 mM Tris, pH 8.0, 1 mM EDTA) containing 10% sarkosyl. Particulate matter was removed by centrifugation and the lysate was incubated with glutathione-Sepharose at 4° C. The beads were washed with kinase buffer and then quantitation of Coomassie blue-stained proteins separated by SDS-PAGE was performed using a protein standard of known concentration.
The cDNA for human cyclin D1 was cloned by RT PCR using […] from MCF-7 cells. […] Bacmid DNA was used to transfect Sf9 insect cells to produce recombinant virus. Following plaque purification of the virus, the viral preparations were amplified until high titer stocks were acheived.
Lysates were prepared by lysis of Sf9 cells coinfected with cdk4 and cyclin D1 in 50 mM HEPES, pH 7.5, 10 mM MgCl2, 1 mM DTT, 0.1 mM phenylmethylsulfonyl fluoride, 5 μg/ml aprotinin, and 5 μg/ml leupeptin using a PARR bomb under 500 p.s.i nitrogen pressure for 5 min at 4° C. Insoluble material was sedimented at 10,000×g for 20 min at 4° C. Glycerol was added to the supernatant to 10% and stored at −80° C. in aliquots.
Pre-wet Millipore Multiscreen 96-well filter plates (0.65 μm Durapore filters) with 200 μl kinase buffer (50 mM HEPES, pH 7.5, 10 mM MgCl2, 1 mM EGTA). GST-Rb (0.5 μg) bound to glutathione-Sepharose beads is added in 50 μl per well and the solution removed by application of vacuum. […] Add 0.1 μg cdk4/cyclin D1 (insect cell lysate) to initiate assay. Incubate 30 min at 37° C. Terminate reaction by filtration on Millipore Vacuum Manifold. Wash four times with TNEN (20 mM Tris, pH 8.0, 100 mM Na Cl, 1 mM EDTA, 0.5% nonidet P-40). After drying the plates at room temperature, the filter plates were placed in adapter plates (Packard) and 40 μl of Microscint-O® (Packard) was added to each well. Top Seal A film was used to cover the plates before counting in a Top Count Scintillation Counter.

MDA-MB-231 = test: In vitro tumor cell proliferation, MDA-MB-231; format: cell-based, human; details: sulforhodamine B or CyQUANT assay, many values given with an undefined *, read-out: In vitro Tumor Cell Proliferation (IC50, μM) Breast MDA-MB-231
Procedure: (§1) The proliferation of tumor cells was measured using a sulforhodamine B assay as described in Skehan, P., et al., J. Natl. Cancer Inst. […] Tumor cells were harvested with trypsin-EDTA, cells that excluded trypan blue were counted, added to 96-well plates and incubated overnight at 37° C. Drug was added to the wells following dilution in culture medium. Three days later, the medium was removed and replenished with medium containing fresh drug and incubated an additional 4 days. The cells were then fixed with 0.1 ml 10% trichloroacetic acid for 60 min at 4° C. The plates were rinsed five times with tap water, air-dried and stained for 30 min with 0.4% sulforhodamine B in 1% acetic acid and air-dried.
(§2) Alternatively, the CyQUANT cell proliferation assay was used to quantitate cell proliferation.
(§3) Alternatively, the CyQUANT cell proliferation assay was used to quantify tumor cell proliferation. Tumor cells were harvested with trypsin-EDTA, cells that excluded trypan blue were counted, added to 96-well plates and incubated overnight at 37° C. Drug was added to the wells following dilution in culture medium. Three days later the medium was removed and the plates frozen at −80° C. for at least 30 minutes.
MDA-MB-23 1 is a human breast adenocarcinoma, hormone-independent (HTB 26);

MDA-MB-435 = test: In vitro tumor cell proliferation, MDA-MB-435; format: cell-based; details: values given with an undefined *, read-out: In vitro Tumor Cell Proliferation (IC50, μM) Breast MDA-MB-435
Procedure: as §1, §2, §3

HT-29 = test: In vitro tumor cell proliferation, HT-29; format: cell-based, human; details: many values given with an undefined *, read-out: In vitro Tumor Cell Proliferation (IC50, μM) Colon HT-29
Procedure: as §1, §2, §3
HT-29 is a human colon adenocarcinoma, moderately well-differentiated grade II (HTB 38);

Colo-205 = test: In vitro tumor cell proliferation, Colo-205; format: cell-based; details: values given with an undefined *, read-out: In vitro Tumor Cell Proliferation (IC50, μM) Colon Colo-205
Procedure: as §1, §2, §3

A549 = test: In vitro tumor cell proliferation, A549; format: cell-based, human; details: many values given with an undefined *, read-out: In vitro Tumor Cell Proliferation (IC50, μM) Lung A549
Procedure: as §1, §2, §3

DMS-114 = test: In vitro tumor cell proliferation, DMS-114; format: cell-based, human; details: many values given with an undefined *, read-out: In vitro Tumor Cell Proliferation (IC50, μM) Lung DMS-114
Procedure: DMS-1 14: human small cell lung carcinoma;
as §1, §2, §3

PC-3 = test: In vitro tumor cell proliferation, PC-3; format: cell-based, human; details: many values given with an undefined *, read-out: In vitro Tumor Cell Proliferation (IC50, μM) Prostate PC-3
Procedure: as §1, §2, §3

DU145 = test: In vitro tumor cell proliferation, DU145; format: cell-based, human; details: many values given with an undefined *, read-out: In vitro Tumor Cell Proliferation (IC50, μM) Prostate DU145
Procedure: as §1, §2, §3

cdk2/cyclin E = target: T2, cdk2/cyclin E (Homo sapiens, UniProt P24941); test: Cyclin-Dependent Kinase 2 Assay (cdk2/cyclin E, GST-Rb substrate); format: biochemical; details: recombinant cdk2/cyclin E, 10 μM ATP, 30 min at 30° C., several values in a cell = separate determinations, read-out: CDK-2 Inhibition IC50
T2 construct: made in house; host or cells: insect cells (baculovirus co-infection)
Procedure: Substrate: GST-Rb as described above for cdk4/cyclin D1
Assay conditions for cdk2/cyclin E were identical to those for cdk4/cyclin D1 including the substrate. The concentration of recombinant cdk2/cyclin E in the assay was 0.1 μg per 100 μl assay. Incubation was for 30 min at 30° C.

[1] = Homo sapiens, MDA-MB-231, MDA-MB-231

T1 sequence (P11802 whole entry): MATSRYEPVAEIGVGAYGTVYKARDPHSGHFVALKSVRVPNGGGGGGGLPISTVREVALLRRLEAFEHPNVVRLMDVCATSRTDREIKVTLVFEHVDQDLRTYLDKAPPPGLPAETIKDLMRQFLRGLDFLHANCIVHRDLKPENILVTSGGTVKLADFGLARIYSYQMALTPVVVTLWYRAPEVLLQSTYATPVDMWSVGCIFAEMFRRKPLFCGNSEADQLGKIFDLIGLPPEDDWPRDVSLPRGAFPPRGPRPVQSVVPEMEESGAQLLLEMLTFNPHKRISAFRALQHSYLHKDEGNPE
T1 sequence (P24385 whole entry partner): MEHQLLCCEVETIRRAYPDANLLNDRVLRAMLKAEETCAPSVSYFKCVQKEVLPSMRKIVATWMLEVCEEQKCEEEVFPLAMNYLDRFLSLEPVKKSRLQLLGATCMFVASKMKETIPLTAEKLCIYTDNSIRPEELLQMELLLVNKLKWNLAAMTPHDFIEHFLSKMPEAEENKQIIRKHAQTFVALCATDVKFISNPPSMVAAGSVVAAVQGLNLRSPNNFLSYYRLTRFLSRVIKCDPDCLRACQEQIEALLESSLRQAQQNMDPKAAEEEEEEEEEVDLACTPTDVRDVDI

IC50 (MDA-MB-231; MDA-MB-231, trihydrochloride)	IC50 (MDA-MB-435; MDA-MB-435, trihydrochloride)	IC50 (HT-29; HT-29, trihydrochloride)	IC50 (Colo-205; Colo-205, trihydrochloride)	IC50 (A549; A549, trihydrochloride)	IC50 (DMS-114; DMS-114, trihydrochloride)	IC50 (PC-3; PC-3, trihydrochloride)	IC50 (DU145; DU145, trihydrochloride)	IC50 (cdk2/cyclin E)	IC50 (cdk4/cyclin D1)	IC50 (MDA-MB-231; MDA-MB-231)	IC50 (MDA-MB-435; MDA-MB-435)	IC50 (Colo-205; Colo-205)	IC50 (DU145; DU145)	Compound	further results
0.41 µM and 0.38 µM	0.5 µM and 0.49 µM	0.4 µM and 0.34 µM	0.31 µM and 0.25 µM	0.3 µM	0.67 µM and 0.36 µM	0.36 µM and 0.45 µM	0.31 µM and 0.29 µM							2-[Trans-(4-aminocyclohexyl)amino]-6-[4-[1-(2,5-difluorobenzyl)]piperidinylamino-9-cyclopentylpurine trihydrochloride [Example 147-f]	IC50 (cdk4/cyclin D1; trihydrochloride): 1100 nM and 2100 nM
								27100 nM	4600 nM and 10000 nM					NC1CCC(Nc2nc(NC(c3ccc(Cl)cc3)C3CC3)c3ncn(C4CCCC4)c3n2)CC1 (racemic) [Example 24, (+/−)-2-[Trans-(4-aminocyclohexyl)amino]-6-[(α-cyclopropyl-4-chlorobenzyl)amino]-9-cyclopentylpurine dihydrochloride]	
								19400 nM	46000 nM and > 100000 nM					COc1cccc(OC)c1CNc1nc(N[C@H]2CC[C@H](N)CC2)nc2c1ncn2C1CCCC1 [Example 4, 2-[Trans-(4-aminocyclohexyl)amino]-6-[(2,6-dimethoxybenzyl)amino]-1-9-cyclopentylpurine dihydrochloride]	
								497 nM						N[C@H]1CC[C@H](Nc2nc(NNc3c(Cl)cccc3Cl)c3ncn(C4CCCC4)c3n2)CC1 [Example 20, 2-[Trans-(4-aminocyclohexyl)amino]-6-[2,6-dichlorophenylhydrazino]-9-cyclopentylpurine dihydrochloride]	IC50 (MDA-MB-231; [1]): 4.8 µM; IC50 (MDA-MB-435; Homo sapiens, MDA-MB-435, MDA-MB-435): 11 µM; IC50 (HT-29; Homo sapiens, HT-29, HT-29): 7.6 µM; IC50 (A549; A549, dihydrochloride): 4.8 µM; IC50 (A549; Homo sapiens, A549, A549): 5.6 µM; IC50 (DMS-114; Homo sapiens, DMS-114, DMS-114): 7.5 µM; IC50 (PC-3; Homo sapiens, PC-3, PC-3): 7.9 µM; IC50 (DU145; Homo sapiens, DU-145, DU145): 6.5 µM
										0.18 µM	0.23 µM and 0.35 µM	0.28 µM and 0.17 µM	0.28 µM and 0.27 µM	COc1ccc(CN2CCC(Nc3nc(N[C@H]4CC[C@H](N)CC4)nc4c3ncn4C3CCCC3)CC2)cc1 [Example 39, 2-[Trans-(4-aminocyclohexyl)amino]-6-[4-(1-(4-methoxybenzyl))piperidinylamino]-9-cyclopentylpurine]	IC50 (HT-29; HT-29): 0.32 µM and 0.22 µM; IC50 (A549; A549): 0.17 µM; IC50 (DMS-114; DMS-114): 0.32 µM and 0.22 µM; IC50 (PC-3; PC-3): 0.28 µM and 0.36 µM
									750 nM and 1400 nM	0.29 µM and 0.32 µM	0.35 µM and 0.36 µM	0.25 µM and 0.21 µM	0.29 µM and 0.23 µM	COc1cccc(CN2CCC(Nc3nc(N[C@H]4CC[C@H](N)CC4)nc4c3ncn4C3CCCC3)CC2)c1 [Example 41, 2-[Trans-(4-aminocyclohexyl)amino]-6-[4-(1-(3-methoxybenzyl))piperidinylamino]-9-cyclopentylpurine]	IC50 (HT-29; HT-29): 0.32 µM; IC50 (A549; A549): 0.19 µM; IC50 (DMS-114; DMS-114): 0.38 µM and 0.29 µM; IC50 (PC-3; PC-3): 0.27 µM and 0.42 µM
								140 nM		6.6 µM	11 µM	8.6 µM	6.7 µM	COc1cc(CNc2nc(NC3CCC(N)CC3)nc3c2ncn3C2CCCC2)cc(OC)c1OC (stereo not shown) [Example 147-ae]	IC50 (MDA-MB-231; [1]): 6.5 µM; IC50 (HT-29; Homo sapiens, HT-29, HT-29): 10 µM; IC50 (Colo-205; Homo sapiens, COLO 205, Colo-205): 11 µM; IC50 (A549; Homo sapiens, A549, A549): 11 µM; IC50 (DMS-114; Homo sapiens, DMS-114, DMS-114): 8.7 µM; IC50 (DU145; Homo sapiens, DU-145, DU145): 12 µM
0.3 µM and 0.34 µM	0.3 µM and 0.45 µM	0.33 µM	0.24 µM and 0.27 µM	0.17 µM and 0.18 µM	0.39 µM and 0.26 µM	0.23 µM and 0.41 µM	0.23 µM							Cc1cccc(CN2CCC(Nc3nc(N[C@H]4CC[C@H](N)CC4)nc4c3ncn4C3CCCC3)CC2)c1 [Example 147-i, 2-[Trans-(4-aminocyclohexyl)amino]-6-[4-[1-(3-methylbenzyl)]piperidinylamino]-9-cyclopentylpurine trihydrochloride]	
0.19 µM and 0.25 µM	0.36 µM and 0.33 µM	0.32 µM and 0.38 µM	0.17 µM and 0.19 µM	0.18 µM and 0.19 µM	0.4 µM and 0.21 µM	0.33 µM and 0.4 µM	0.29 µM and 0.32 µM							COc1ccccc1CN1CCC(Nc2nc(N[C@H]3CC[C@H](N)CC3)nc3c2ncn3C2CCCC2)CC1 [Example 147-q, 2-[Trans-(4-aminocyclohexyl)amino]-6-[4-1-(2-methoxybenzyl)]piperidinylamino-9-cyclopentylpurine trihydrochloride]	IC50 (cdk4/cyclin D1; trihydrochloride): 690 nM and 1300 nM

— US6479487B1, “6, 9-disubstituted 2-[trans-(4-aminocyclohexyl)amino] purines” (Aventis Pharmaceuticals Inc., priority 1998, dated 2002)
